Reference: US4797406A, “Amides and esters containing bridged piperidines and use as serotonin M antagonists” (Sandoz Ltd., priority 1983, dated 1989)

Tests used:
[1] = molecular target: T1, M receptors for serotonin (Oryctolagus cuniculus, UniProt A0A5F9C9J3); settings: isolated rabbit vagus nerve; known serotonin D receptor antagonists; cited from earlier work
T1 construct: isolated rabbit vagus nerve; from tissue; host or cells: isolated rabbit vagus nerve
T1 sequence (A0A5F9C9J3 1-494): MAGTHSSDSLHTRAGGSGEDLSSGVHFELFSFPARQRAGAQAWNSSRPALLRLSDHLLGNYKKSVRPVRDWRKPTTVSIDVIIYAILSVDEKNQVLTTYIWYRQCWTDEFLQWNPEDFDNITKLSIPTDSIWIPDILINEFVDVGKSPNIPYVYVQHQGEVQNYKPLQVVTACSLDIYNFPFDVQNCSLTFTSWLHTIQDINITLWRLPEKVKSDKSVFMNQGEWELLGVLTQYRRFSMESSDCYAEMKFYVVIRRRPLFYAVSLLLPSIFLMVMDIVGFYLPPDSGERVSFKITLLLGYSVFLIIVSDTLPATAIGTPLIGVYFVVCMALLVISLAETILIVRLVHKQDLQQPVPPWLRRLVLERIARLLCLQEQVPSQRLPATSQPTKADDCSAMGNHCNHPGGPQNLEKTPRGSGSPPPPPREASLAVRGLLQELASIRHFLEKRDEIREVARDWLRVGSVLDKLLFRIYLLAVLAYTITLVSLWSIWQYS

[2] = test system: serotonin M receptor; settings: human volunteers, forearm blister; serotonin D receptor antagonists; cited from earlier work
[3] = test system: migraine attack; settings: slow i.v. injection of 10 mg; reported by J. B. Hughes 1977; cited from earlier work
[4] = molecular target: T1, M receptors for serotonin; test: isolated rabbit vagus nerve test (serotonin reduction of C fibre compound action potential); settings: antagonism of serotonin on C fibre action potential, read-out: pA2 in the vagus nerve test (converted)
Description: For example, in one test the action of the compounds in inhibiting the action of serotonin in reducing the amplitude of the compound action potential from the isolated rabbit vagus nerve was observed according to the principles of Riccioppo Neto, European Journal of Pharmacology (1978) 49 351-356, under conditions permitting differentation between action potentials generated in myelinatd nerve fibres (A fibres) and those generated in small non-myelinated fibres (C fibres) as described by B. Oakley and R. Schater, Experimental Neurobiology, A Laboratory Manual, University of Michigan Press, 1978, p.85 to 96. Serotonin itself exerts its effect selectively on the C-fibres progressively with dosage. This action of serotonin is not blocked by the known serotonin antagonists, metitepine, methysergide, BOL - 148, which have been said to block D receptors for serotonin, but not M receptors (see Gaddam and Picarlli, Brit.J.Pharmacol. (1957), 12, 323-328). It therefore appears that serotonin reduces the amplitude of the action potential carried by the C fibres through an effect mediated by M receptors for serotonin which are located on these nerve fibres.
The test may be effected by establishing a dose response curve for serotonin (10^-7 -5×10^-6 M) after setting up the nerve. […]

| SMILES | block of the action of serotonin on the C fibre action potential [1] | inhibition of the algesic action of serotonin on the blister base [2] | Kb [4] | further results |
| --- | --- | --- | --- | --- |
| CCN(CC)C(=O)[C@@H]1C=C2c3cccc4[nH]c(Br)c(c34)C[C@H]2N(C)C1 [BOL - 148] | not blocked | not inhibited |  |  |
| CC[C@@H](CO)NC(=O)[C@@H]1C=C2c3cccc4c3c(cn4C)C[C@H]2N(C)C1 [methysergide] | not blocked |  |  |  |
| CSc1ccc2c(c1)C(N1CCN(C)CC1)Cc1ccccc1S2 (centres unmarked) [metitepine] | not blocked |  |  |  |
| CCN(CC)CCNC(=O)c1cc(Cl)c(N)cc1OC [metoclopramide, Metoclopramide] |  |  | 50.1 nM | effect on a migraine attack [3]: immediate effect |
| CCN(CC)C(=O)[C@@H]1C=C2c3cccc4[nH]cc(c34)C[C@H]2N(C)C1 [lysergic acid diethylamide] |  | not inhibited |  |  |
| CN1C[C@H]2CCC[C@@H](C1)[C@@H]2OC(=O)c1c[nH]c2ccccc12 [Example 2] |  |  | 6.31 nM |  |
